In ChEMBL document CHEMBL2331113, “Synthesis of cyclic pyranopterin monophosphate, a biosynthetic intermediate in the molybdenum cofactor pathway” (J Med Chem, 2013):

Experiments:
[1] = Prodrug conversion in HEPES buffer assessed as Escherichia coli MPT synthase-mediated 2-amino-6-(3,4-dihydroxybut-1-ynyl)pteridin-4(3H)-one formation measured as activation of human apo-sulfite oxidase incubated for 30 mins prior to apo-sulfite oxidase addition measured after 30 mins by spectrophotometric analysis in presence of gephyrin; conditions: 0.5 h
[2] = Prodrug conversion in Tris/HCl buffer assessed as Escherichia coli MPT synthase-mediated 2-amino-6-(3,4-dihydroxybut-1-ynyl)pteridin-4(3H)-one formation after 30 mins by HPLC analysis; format: ADME; conditions: 0.5 h
[3] = Half life of aerial oxidation of the compound at pH 3; format: physicochemical

| Drug metabolism [1] | Drug metabolism [2] | half-life [3] [h] | Structure (SMILES) |
| --- | --- | --- | --- |
| Dose-dependent effect | Dose-dependent effect |  | Br.Nc1nc2c(c(=O)[nH]1)N[C@@H]1[C@H](N2)O[C@@H]2COP(=O)(O)O[C@@H]2C1(O)O |
| Active | Active | 10.6 | Nc1nc2c(c(=O)[nH]1)N[C@@H]1[C@H](N2)O[C@@H]2COP(=O)(O)O[C@@H]2C1(O)O [FOSDENOPTERIN] |
